In this assay the target is T1, CDK12 complexed with Cyclin K (Homo sapiens, UniProt Q9NYV4).
T1 construct: GST (N); host or cells: baculovirus expression system
In words: CDK enzymatic assay (HTRF, LANCE Ultra kinase assay). Format: biochemical. As to conditions: 60 minutes pre-incubation with compound; 1 mM ATP. As for the experimental part: The following activity of the CDK enzymes in complex with their respective cyclins we assayed: CDK1 complexed with Cyclin B1; CDK2 complexed with Cyclin E1; CDK4 complexed with Cyclin D1; CDK6 complexed with Cyclin D1; CDK6 complexed with Cyclin D3; CDK9 complexed with Cyclin T1; CDK7 complexed with Cyclin H/MAT1; CDK2 complexed with Cyclin A2; CDK5 complexed with p35; CDK12 complexed with Cyclin K; CDK13 complexed with Cyclin K. These in vitro enzyme activity are assayed using homogeneous time-resolved energy transfer (HTRF), which measures phosphorylation of a peptide substrate. The LANCE® Ultra kinase assay (PerkinElmer) uses a ULight™-labeled EIF4E-binding protein 1 (THR37/46) peptide (DYSTTPGGTLFSTTPGTRI (SEQ ID NO: 1)) substrate and a Europium-labeled anti-phospho-4E-BP1 antibody (CDK2, CDK1, CDK4, CDK6, CDK9, CDK12, CDK13) or ULight™-labeled Myelin Basic Protein peptide (VTPRTPPP (SEQ ID NO: 2)) substrate and a Europium-labeled anti-phospho-MBP antibody (CDK7). Each CDK enzyme activity assays utilized human CDK co-expressed as N-terminal GST-tagged protein with its full length cyclin partner using a baculovirus expression system.
Enzyme was pre-incubated with compounds for 30 minutes (CDK1,2,4,6,9) or 60 minutes (CDK7, CDK12, CDK13) prior to addition of ATP and Ulight-peptide (1 mM and 50 nM final, respectively), in assay buffer containing 50 mM HEPES pH 7.5, 1 mM EGTA, 10 mM MgCl2, 2 mM DTT, 0.05 mg/mL BSA, and 0.01% Tween 20. The reaction was then incubated for 60-90 minutes at room temperature. The reactions were stopped by the addition of EDTA and Europium labeled antibody, for a final concentration of 15 mM and 1.0-1.5 nM, respectively. HTRF signals were read after 15-120 minutes. A ratio of fluorescence transferred to the labeled substrate (665 nm) relative to fluorescence of the Europium donor (620 nm) represents the extent of phosphorylation. Ratios for treated wells were normalized to DMSO only (100% activity) and no enzyme (0% activity) controls. Normalized data was analyzed using a three or four parameter dose response curve to determine IC50 for each compound and are shown in Table A. Control reference inhibitors were included on each plate.
A general note: Time-resolved FRET reads energy transfer from a long-lived donor to a nearby acceptor.

A value given as a limit tells only on which side of the number the result lay.

T1 sequence (Q9NYV4 whole entry): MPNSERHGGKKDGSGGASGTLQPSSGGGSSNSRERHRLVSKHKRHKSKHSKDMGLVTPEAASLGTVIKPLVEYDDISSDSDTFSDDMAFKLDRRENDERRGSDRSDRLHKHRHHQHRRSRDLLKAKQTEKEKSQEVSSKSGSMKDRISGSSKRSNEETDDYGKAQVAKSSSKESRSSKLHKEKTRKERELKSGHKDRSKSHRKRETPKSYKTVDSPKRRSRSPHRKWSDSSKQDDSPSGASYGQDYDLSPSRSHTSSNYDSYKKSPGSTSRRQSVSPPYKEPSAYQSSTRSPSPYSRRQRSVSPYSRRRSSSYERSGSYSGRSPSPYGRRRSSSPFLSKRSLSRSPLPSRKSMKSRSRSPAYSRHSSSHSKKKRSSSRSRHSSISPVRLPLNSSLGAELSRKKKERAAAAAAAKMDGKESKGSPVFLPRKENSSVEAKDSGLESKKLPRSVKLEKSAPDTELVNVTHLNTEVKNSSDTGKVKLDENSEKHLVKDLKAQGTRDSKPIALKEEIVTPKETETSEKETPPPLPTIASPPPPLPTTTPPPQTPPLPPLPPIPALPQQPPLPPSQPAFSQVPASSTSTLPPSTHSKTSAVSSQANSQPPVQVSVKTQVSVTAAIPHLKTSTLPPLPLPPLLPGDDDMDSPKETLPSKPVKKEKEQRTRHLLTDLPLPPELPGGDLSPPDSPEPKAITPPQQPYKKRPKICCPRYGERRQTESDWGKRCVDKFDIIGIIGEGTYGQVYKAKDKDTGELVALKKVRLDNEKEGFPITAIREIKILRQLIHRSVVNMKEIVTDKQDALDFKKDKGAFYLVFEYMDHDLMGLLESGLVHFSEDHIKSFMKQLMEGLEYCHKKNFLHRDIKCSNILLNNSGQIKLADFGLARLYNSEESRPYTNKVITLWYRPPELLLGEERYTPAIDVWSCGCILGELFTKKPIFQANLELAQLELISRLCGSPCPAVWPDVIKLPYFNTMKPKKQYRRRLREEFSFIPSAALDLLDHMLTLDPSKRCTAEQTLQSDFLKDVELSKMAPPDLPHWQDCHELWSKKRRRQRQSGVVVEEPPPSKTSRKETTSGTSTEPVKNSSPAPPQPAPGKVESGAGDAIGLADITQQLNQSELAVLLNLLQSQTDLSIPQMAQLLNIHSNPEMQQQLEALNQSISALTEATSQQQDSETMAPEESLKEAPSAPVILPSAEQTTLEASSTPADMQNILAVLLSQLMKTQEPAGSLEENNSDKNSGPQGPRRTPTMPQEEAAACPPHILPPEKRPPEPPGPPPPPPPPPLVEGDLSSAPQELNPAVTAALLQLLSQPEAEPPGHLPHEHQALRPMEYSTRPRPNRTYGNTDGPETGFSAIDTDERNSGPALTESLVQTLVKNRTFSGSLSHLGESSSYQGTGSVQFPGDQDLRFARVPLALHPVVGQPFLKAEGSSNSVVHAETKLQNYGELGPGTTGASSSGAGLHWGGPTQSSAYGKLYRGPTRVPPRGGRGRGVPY
T1 sequence (O75909 whole entry partner): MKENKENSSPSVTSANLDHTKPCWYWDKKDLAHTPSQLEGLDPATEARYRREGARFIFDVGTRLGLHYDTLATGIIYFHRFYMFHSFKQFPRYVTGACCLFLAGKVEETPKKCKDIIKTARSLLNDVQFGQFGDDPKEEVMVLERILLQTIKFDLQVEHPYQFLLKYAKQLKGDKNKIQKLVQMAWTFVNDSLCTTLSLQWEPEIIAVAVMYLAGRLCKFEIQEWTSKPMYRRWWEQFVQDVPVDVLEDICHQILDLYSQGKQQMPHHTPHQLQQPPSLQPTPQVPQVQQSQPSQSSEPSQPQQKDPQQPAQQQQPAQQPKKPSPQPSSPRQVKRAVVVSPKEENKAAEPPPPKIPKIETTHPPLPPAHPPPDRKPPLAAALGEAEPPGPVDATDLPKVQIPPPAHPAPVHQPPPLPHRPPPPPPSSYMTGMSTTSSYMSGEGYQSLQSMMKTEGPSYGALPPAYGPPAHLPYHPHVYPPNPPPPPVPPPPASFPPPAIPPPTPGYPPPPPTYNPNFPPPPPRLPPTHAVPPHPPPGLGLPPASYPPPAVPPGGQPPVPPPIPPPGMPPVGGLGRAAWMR

Turning to `C=CC(=O)Nc1ccc(C(=O)N2CCC[C@@H](Nc3nc4ccc(-c5cn[nH]c5)c(O[C@H]5CCOC5)n4n3)C2)cc1` [Example 14, N-(4-((R)-3-((6-(1H-Pyrazol-4-yl)-5-(((S)-tetrahydrofuran-3-yl)oxy)-[1,2,4]triazolo[1,5-a]pyridin-2-yl)amino)piperidine-1-carbonyl)phenyl)acrylamide], the half-inhibitory concentration (IC50) – broadly, the midpoint of a concentration-inhibition curve – is under 50 nM. Then `CC#CC(=O)Nc1ccc(C(=O)N2CC[C@@H](Nc3nc4c(C)c(-c5cn[nH]c5)ccn4n3)C2)cc1` [Example 33, (R)-N-(4-(3-((8-Methyl-7-(1H-pyrazol-4-yl)-[1,2,4]triazolo[1,5-a]pyridin-2-yl)amino)pyrrolidine-1-carbonyl)phenyl)but-2-ynamide], with under 50 nM.

Take `C=CC(=O)Nc1ccc2sc(N3CCC[C@@H](Nc4nc5ccc(-c6cn[nH]c6)c(C(F)(F)F)n5n4)C3)nc2c1` [Example 35, (R)-N-(2-(3-((6-(1H-pyrazol-4-yl)-5-(trifluoromethyl)-[1,2,4]triazolo[1,5-a]pyridin-2-yl)amino)piperidin-1-yl)benzo[d]thiazol-5-yl)acrylamide]: the IC50 was under 50 nM.

Take `C=CC(=O)Nc1ccc(C(=O)N2CC(Nc3nc4c(OC)c(-c5cn[nH]c5)ncn4n3)C2)cc1` [Example 3, N-(4-(3-((8-Methoxy-7-(1H-pyrazol-4-yl)-[1,2,4]triazolo[1,5-c]pyrimidin-2-yl)amino)azetidine-1-carbonyl)phenyl)acrylamide]: the IC50 was under 50 nM.

Consider `C=CC(=O)Nc1ccc2c(c1)nc(N1CCC[C@@H](Nc3nc4ccc(-c5cn[nH]c5)c(C(C)C)n4n3)C1)n2C` [Example 28, (R)-N-(2-(3-((5-Isopropyl-6-(1H-pyrazol-4-yl)-[1,2,4]triazolo[1,5-a]pyridin-2-yl)amino)piperidin-1-yl)-1-methyl-1H-benzo[d]imidazol-5-yl)acrylamide], for which the IC50 was under 50 nM. For the compound `C=CC(=O)Nc1ccc(C(=O)N2CCC[C@@H](Nc3nc4cnc(-c5cn[nH]c5)c(OC(C)C)n4n3)C2)c(F)c1` [Example 4, (R)-N-(3-Fluoro-4-(3-((5-isopropoxy-6-(1H-pyrazol-4-yl)-[1,2,4]triazolo[1,5-a]pyrazin-2-yl)amino)piperidine-1-carbonyl)phenyl)acrylamide], the IC50 is under 50 nM. The same measure for `C=CC(=O)Nc1ccc2c(c1)C(=O)N([C@H]1CCC[C@@H](Nc3nc4ccc(-c5cn[nH]c5)c(C)n4n3)C1)C2` [Example 22, N-(2-((1S,3R)-3-((5-Methyl-6-(1H-pyrazol-4-yl)-[1,2,4]triazolo[1,5-a]pyridin-2-yl)amino)cyclohexyl)-3-oxoisoindolin-5-yl)acrylamide]: under 50 nM; for `C=CC(=O)Nc1ccc(C(=O)N2CCC[C@@H](Nc3nc4cnc(-c5cn[nH]c5)c(OC5CC(F)(F)C5)n4n3)C2)cc1` [Example 10, (R)-N-(4-(3-((5-(3,3-Difluorocyclobutoxy)-6-(1H-pyrazol-4-yl)-[1,2,4]triazolo[1,5-a]pyrazin-2-yl)amino)piperidine-1-carbonyl)phenyl)acrylamide]: under 50 nM. Then `C=CC(=O)Nc1ccc(C(=O)N2CCC[C@@H](Nc3nc4ccc(-c5cn[nH]c5)c(N5CCCCC5)n4n3)C2)cc1` [Example 6, (R)-N-(4-(3-((5-(Piperidin-1-yl)-6-(1H-pyrazol-4-yl)-[1,2,4]triazolo[1,5-a]pyridin-2-yl)amino)piperidine-1-carbonyl)phenyl)acrylamide], with under 50 nM. Then `C=CC(=O)Nc1ccc(C(=O)N2CCC(Nc3nc4c(OC)c(-c5cn[nH]c5)ncn4n3)CC2)cc1` [Example 2, N-(4-(4-((8-Methoxy-7-(1H-pyrazol-4-yl)-[1,2,4]triazolo[1,5-c]pyrimidin-2-yl)amino)piperidine-1-carbonyl)phenyl)acrylamide], with under 50 nM; and `C=CC(=O)Nc1ccc2c(c1)C(=O)N([C@H]1CCC[C@@H](Nc3nc4ccc(-c5cn[nH]c5)c(N5CCCCC5)n4n3)C1)C2` [Example 21, N-(3-Oxo-2-((1S,3R)-3-((5-(piperidin-1-yl)-6-(1H-pyrazol-4-yl)-[1,2,4]triazolo[1,5-a]pyridin-2-yl)amino)cyclohexyl)isoindolin-5-yl)acrylamide], with under 50 nM. `C=CC(=O)Nc1ccc2c(c1)C(=O)N([C@H]1CCC[C@@H](Nc3nc4ccc(-c5cn[nH]c5)c(C(F)(F)F)n4n3)C1)C2` [Example 34, N-(2-((1S,3R)-3-((6-(1H-pyrazol-4-yl)-5-(trifluoromethyl)-[1,2,4]triazolo[1,5-a]pyridin-2-yl)amino)cyclohexyl)-3-oxoisoindolin-5-yl)acrylamide]: the IC50 is under 50 nM. For the compound `C=CC(=O)Nc1ccc(C(=O)N2CC[C@@H](Nc3nc4ccc(-c5cn[nH]c5)c(C#N)n4n3)C2)cc1` [Example 17, (R)-N-(4-(3-((5-Cyano-6-(1H-pyrazol-4-yl)-[1,2,4]triazolo[1,5-a]pyridin-2-yl)amino)pyrrolidine-1-carbonyl)phenyl)acrylamide], the IC50 is under 50 nM. Take `C=CC(=O)Nc1ccc(C(=O)N2CCC[C@@H](Nc3nc4ccc(-c5cn[nH]c5)c(OC5CCOCC5)n4n3)C2)cc1` [Example 15, (R)-N-(4-(3-((6-(1H-Pyrazol-4-yl)-5-((tetrahydro-2H-pyran-4-yl)oxy)-[1,2,4]triazolo[1,5-a]pyridin-2-yl)amino)piperidine-1-carbonyl)phenyl)acrylamide]: the IC50 was under 50 nM. The same measure for `C=CC(=O)Nc1ccc(C(=O)N2CCCC(Nc3nc4ccc(-c5c[nH]nc5C)c(N5CCOCC5)n4n3)C2)cc1` (centres unmarked) [Example 9, N-(4-(3-((6-(3-Methyl-1H-pyrazol-4-yl)-5-morpholino-[1,2,4]triazolo[1,5-a]pyridin-2-yl)amino)piperidine-1-carbonyl)phenyl)acrylamide]: over 500 nM. Then `C=CC(=O)Nc1ccc(C(=O)N2CCC[C@@H](Nc3nc4c(OC)c(-c5cn[nH]c5)ncn4n3)C2)cc1` [Example 5, (R)-N-(4-(3-((8-Methoxy-7-(1H-pyrazol-4-yl)-[1,2,4]triazolo[1,5-c]pyrimidin-2-yl)amino)piperidine-1-carbonyl)phenyl)acrylamide], with under 50 nM. The same measure for `C=C(F)C(=O)Nc1ccc(C(=O)N2CC[C@@H](Nc3nc4cc(-c5cn[nH]c5)ccn4n3)C2)cc1` [Example 31, (R)-N-(4-(3-((7-(1H-Pyrazol-4-yl)-[1,2,4]triazolo[1,5-a]pyridin-2-yl)amino)pyrrolidine-1-carbonyl)phenyl)-2-fluoroacrylamide]: under 50 nM; for `C=CC(=O)Nc1ccc(C(=O)N2CC[C@@H](Nc3nc4ccc(-c5cn[nH]c5)c(C(C)C)n4n3)C2)cc1F` [Example 19, (R)-N-(2-Fluoro-4-(3-((5-isopropyl-6-(1H-pyrazol-4-yl)-[1,2,4]triazolo[1,5-a]pyridin-2-yl)amino)pyrrolidine-1-carbonyl)phenyl)acrylamide]: under 50 nM; for `C=CC(=O)Nc1ccc2sc(N3CCC[C@@H](Nc4nc5ccc(-c6cn[nH]c6)c(C(C)C)n5n4)C3)nc2c1` [Example 27, (R)-N-(2-(3-((5-Isopropyl-6-(1H-pyrazol-4-yl)-[1,2,4]triazolo[1,5-a]pyridin-2-yl)amino)piperidin-1-yl)benzo[d]thiazol-5-yl)acrylamide]: under 50 nM. On to `C=CC(=O)N(C)c1ccc(C(=O)N2CC[C@@H](Nc3nc4ccc(-c5cn[nH]c5)c(C(C)C)n4n3)C2)cc1` [Example 25, (R)-N-(4-(3-((5-Isopropyl-6-(1H-pyrazol-4-yl)-[1,2,4]triazolo[1,5-a]pyridin-2-yl)amino)pyrrolidine-1-carbonyl)phenyl)-N-methylacrylamide], for which the IC50 was under 50 nM. Then `C=CC(=O)Nc1ccc(C(=O)N2CCC[C@@H](Nc3nc4ccc(-c5cn[nH]c5)c(N5CCOCC5)n4n3)C2)cc1` [Example 8, (R)-N-(4-(3-((5-Morpholino-6-(1H-pyrazol-4-yl)-[1,2,4]triazolo[1,5-a]pyridin-2-yl)amino)piperidine-1-carbonyl)phenyl)acrylamide], with under 50 nM; and `C=CC(=O)Nc1ccc2c(c1)C(=O)N([C@H]1CCC[C@@H](Nc3nc4ccc(-c5cn[nH]c5)c(C(C)C)n4n3)C1)C2` [Example 23, N-(2-((1S,3R)-3-((5-Isopropyl-6-(1H-pyrazol-4-yl)-[1,2,4]triazolo[1,5-a]pyridin-2-yl)amino)cyclohexyl)-3-oxoisoindolin-5-yl)acrylamide], with under 50 nM; and `C=CC(=O)Nc1cnc(N2CCC[C@@H](Nc3nc4ccc(-c5cn[nH]c5)c(C(C)C)n4n3)C2)c(C)c1` [Example 37, (R)-N-(6-(3-((5-isopropyl-6-(1H-pyrazol-4-yl)-[1,2,4]triazolo[1,5-a]pyridin-2-yl)amino)piperidin-1-yl)-5-methylpyridin-3-yl)acrylamide], with under 50 nM.

(Values after patent US12084453B2, “Bicyclic amines as CDK12 inhibitors” (Incyte Corporation, priority 2021, dated 2024).)
